ChEMBL document CHEMBL5107976, “Chalcone-amide, a privileged backbone for the design and development of selective SARS-CoV/SARS-CoV-2 papain-like protease inhibitors” (Eur J Med Chem, 2022)
In brackets after ≈: the same amount, converted by molar mass.

Experiments:
[1] = Inhibition of SARS-CoV PLpro (1541 to 1855 residues) using RLRGG-AMC as substrate preincubated for 5 mins followed by substrate addition measured after 6 mins by fluorescence based assay; parameters: species or system Severe acute respiratory syndrome-related coronavirus
Human rhinovirus sp. = assay: Antiviral activity against HRV infected in human HeLa cells assessed as inhibition in virus replication by plaque assay; assay type: functional, organism-based
[2] = Inhibition of SARS-CoV PLpro using Z-Arg-Leu-Arg-Gly-Gly-AMC acetate as substrate by fluorometric assay; parameters: species or system Severe acute respiratory syndrome-related coronavirus
[3] = target: T1, Replicase polyprotein 1ab (Severe acute respiratory syndrome coronavirus 2, UniProt P0DTD1); assay: Inhibition of SARS-CoV-2 PLpro
SARS-CoV-2 [4] = assay: Antiviral activity against SARS-CoV-2 infected in human Caco-2 cells expressing hACE2 assessed as reduction in virus replication; assay type: functional, organism-based; conditions: Severe acute respiratory syndrome coronavirus 2, Caco-2
[5] = target: T1, Replicase polyprotein 1ab; assay: Inhibition of C-terminal His-tagged SARS-CoV-2 PLpro BetaCoV/Wuhan/WIV04/2019 strain (1564 to 1876 residues) expressed in Escherichia coli BL21(DE3) using FRET substrate measured after 3 hrs by enzymatic assay
SARS-CoV-2 [6] = assay: Antiviral activity against SARS-CoV-2 infected in African green monkey Vero E6 cells assessed as reduction in viral replication at MOI of 0.5 incubated for 23 hrs by plaque assay; assay type: functional, organism-based; conditions: Severe acute respiratory syndrome coronavirus 2, Vero C1008, 23 h
[7] = Cytotoxicity against African green monkey Vero E6 cells assessed as reduction in cell viability; assay type: toxicity, cell-based, Vero C1008; conditions: chlorocebus sabaeus
SARS-CoV-2 [8] = assay: Antiviral activity against SARS-CoV-2 infected in human Caco-2 cells expressing hACE2 assessed as reduction in virus replication incubated for 48 hrs by Western blot analysis; assay type: functional, organism-based; conditions: Severe acute respiratory syndrome coronavirus 2, Caco-2, 48 h

Structure (SMILES): COc1ccc(CNC(=O)C2CCN(Cc3cccc4ccccc34)CC2)cc1
- IC50 [1]: 59.2 µM

Structure (SMILES): CCOc1cc(O)c(C(=O)/C=C/c2ccc(OC)cc2)c(OC)c1
- IC50 (Human rhinovirus sp.): 0.045 µg/mL (≈ 0.137 µM)

Structure (SMILES): Cc1ccc(N(C)C)cc1C(=O)N[C@H](C)c1cccc2ccccc12
- IC50 [2]: 4 µM

Structure (SMILES): Cc1ccc(NC2CNC2)cc1C(=O)N[C@H](C)c1cccc(-c2ccc(CNC[C@H]3CCCO3)s2)c1
- IC50 [3]: 760 nM

Structure (SMILES): C[C@H](c1cccc2ccccc12)N(C)Cc1ccc(O)cc1
- EC50 (SARS-CoV-2 [4]): 8.32 µM

Structure (SMILES): Cc1ccc(N)cc1CN(C)[C@H](C)c1cccc2ccccc12
- IC50 [5]: 990 nM
- EC50 (SARS-CoV-2 [4]): 8.89 µM

Structure (SMILES): Cc1cc(N)ccc1C(=O)N[C@H](C)c1cccc2ccccc12
- IC50 [2]: 1.2 µM
- EC50 (SARS-CoV-2 [6]): 15.8 µM
- CC50 [7]: > 500 µM

Structure (SMILES): C[C@H](c1cccc2ccccc12)N1Cc2ccc(O)cc2C1
- IC50 [2]: 4.5 µM

Structure (SMILES): COc1ccc(CNC(=O)c2c(O)cc(OCC=C(C)C)cc2OC)cc1
- IC50 (Human rhinovirus sp.): 0.0072 µg/mL (≈ 0.0194 µM)

Structure (SMILES): C[C@@H](NC(=O)c1ccccc1Cl)c1cccc2ccccc12
- IC50 [2]: 6.5 µM
- EC50 (SARS-CoV-2 [6]): 1.77 µM
- CC50 [7]: 376 µM

Structure (SMILES): C[C@H](c1cccc2ccccc12)N1CCC(C(=O)NCc2cccc(NC(=O)N3CCN(C)CC3)c2)CC1
- EC50 (SARS-CoV-2 [8]): 600 nM

Structure (SMILES): COc1cc(O)ccc1CN(C)[C@H](C)c1cccc2ccccc12
- IC50 [5]: 580 nM

Structure (SMILES): C[C@H](c1cccc2ccccc12)N1CCC(C(=O)NCc2cc(F)cc(NC(=O)CN(C)C)c2)CC1
- EC50 (SARS-CoV-2 [8]): 220 nM

Structure (SMILES): Cc1cc(NS(C)(=O)=O)ccc1C(=O)N[C@H](C)c1cccc2ccccc12
- IC50 [2]: 4.8 µM

Structure (SMILES): C[C@H](c1cccc2ccccc12)N1CCC(C(=O)NCc2cc(F)cc(NC(=O)N3CCN(C)CC3)c2)CC1
- EC50 (SARS-CoV-2 [8]): 180 nM

Structure (SMILES): CNS(=O)(=O)c1ccc(C)c(C(=O)N[C@H](C)c2cccc3ccccc23)c1
- IC50 [2]: 4 µM

Structure (SMILES): C[C@H](c1cccc2ccccc12)N1Cc2ccc(N)cc2C1
- IC50 [2]: 4.9 µM

Structure (SMILES): CCOc1cc(O)c(C(=O)NCc2ccc(NC)cc2)c(OC)c1
- IC50 (Human rhinovirus sp.): 0.022 µg/mL (≈ 0.0666 µM)

Structure (SMILES): C[C@H](c1cccc2ccccc12)N1Cc2ccccc2C1
- IC50 [2]: 2.9 µM
- EC50 (SARS-CoV-2 [6]): 7.85 µM
- CC50 [7]: 442 µM

Structure (SMILES): Cc1ccsc1C(=O)N[C@H](C)c1cccc2ccccc12
- IC50 [2]: 14 µM
- EC50 (SARS-CoV-2 [6]): 4.74 µM
- CC50 [7]: > 500 µM

Structure (SMILES): CCOc1cc(O)c(C(=O)NCc2ccc(OC)cc2)c(OC)c1
- IC50 (Human rhinovirus sp.): 0.014 µg/mL (≈ 0.0422 µM)

Structure (SMILES): Cc1ccc(N)cc1C(=O)N[C@H](C)c1cccc2ccccc12
- EC50 (SARS-CoV-2 [4]): 25.1 µM
